Test results reported in paper PMC6396024, “Artemin and an Artemin-Derived Peptide, Artefin, Induce Neuronal Survival, and Differentiation Through Ret and NCAM” (Frontiers in Molecular Neuroscience, 2019).
Bridge positions count the residues as written; N and C are the ends. Ends that are not written are not given here. I, II: the chains in the order shown.

Legend:
Type in all cases: cell-based, Wistar rat
[1] = system: RET; cerebellar granule neurons (CGNs); experiment: Neurite outgrowth in CGNs transfected with dominant negative RET (dnRET); conditions: 24 h, P2-d 8 μg/ml, ARTN 0.21 nM, artefin 1.4 μM; for neurite outgrowth in mock-transfected neurons: empty vector, versus control
Procedure: (§1) Cerebellar granule neurons (CGNs) were prepared from 7-day-old Wistar rat pups (Charles River Laboratories, Sulzfeld, Germany) as previously described ([Schousboe et al., 1989]). Briefly, pups were decapitated, and the cerebellum was removed and cleared from blood vessels and meninges in ice-cold modified Krebs-Ringer buffer. The cerebellum was dissociated by chopping and trypsinization. Cells were washed in Krebs-Ringer buffer containing DNAse I (Sigma, St. Louis, MO, United States) and soybean trypsin inhibitor (Sigma) to stop trypsinization, and the remaining tissue pieces were pelleted by centrifugation. Cells were then washed in Krebs-Ringer buffer containing Ca^2+ and Mg^2+ and re-suspended in appropriate Neurobasal^TM medium (Invitrogen, Taastrup, Denmark) with supplements depending on the experiment.
(§2) To evaluate the involvement of NCAM and RET in neurite outgrowth induced by either ARTN or artefin, CGNs (3 × 10^6 per transfection) were transfected with 3 μg DNA using a Nucleofector^TM 2b device and a Rat Neuron Nucleofector Kit (Amaxa, Inc., Gaithersburg, MD, United States). A kinase-deleted dominant negative RET insert was obtained by direct PCR using a commercially available clone (IRAKp961P02132Q; RZPD, Berlin, Germany) encoding full-length mouse RET coding sequence 586–3807 nt. as template. The upper primer […] contained a NheI restriction site and Kozak sequence, and the lower primer […] encoded Streptag II and NotI restriction sites. The dominant negative RET insert and the pcDNA5/FRT expression vector containing the Flp-In system were cut with NheI and NotI restriction enzymes, purified, ligated using the Rapid DNA Ligation Kit (Roche, Basel, Switzerland), and transfected into One Shot TOP10 E. coli (Invitrogen, Taastrup, Denmark). E. coli colonies containing the dominant negative RET insert were identified by PCR, and one insert-positive colony was used for plasmid purification. The identity of the purified plasmid was verified by restriction cutting and sequencing of the insert. For NCAM knock down, we used a pENTR vector containing the shRNA expression cassette for NCAM knock down ([Hansen et al., 2007]). An empty vector was used as a control. To identify transfected neurons, all transfections were performed as co-transfections with 0.5 μg pEGFP-N1, an expression vector encoding the enhanced variant of green fluorescent protein (GFP; Clontech, Palo Alto, CA, United States). Transfected CGNs were seeded in Neurobasal^TM-A medium supplemented with 2% (v/v) B27, 5% (v/v) FCS, and 2 mM Glutamax at a density of 1 × 10^5 cells/cm^2.
(§3) To estimate neurite outgrowth, neurons were fixated 24 h after stimulation and stained with rabbit anti-growth-associated-protein-43 (GAP-43) antibody (Chemicon International, Inc., Temecula, CA, United States) or anti-GFP antibody (for transfection experiment) overnight at 4°C followed by incubation with secondary Alexa-conjugated goat anti-rabbit antibodies (Invitrogen, Taastrup, Denmark). In case of experiments with plasmid transfection, the transfection efficiency was ca. 20% of total cells and the neurite outgrowth was evaluated only in GFP-positive, i.e., transfected, cells. For representative pictures, cells were additionally co-stained with Hoechst 33258.
(§4) Computer-assisted fluorescent microscopy was performed using a Nikon Diaphot 300 inverted microscope (Nikon) equipped with a Nikon Plan 20× objective and coupled to a video camera (Grundig Electronics, Germany). For each condition in each experiment, including the experiment with transfections, images of approximately 200 cells were recorded in systematic series of fields of view, and neurite outgrowth was quantified using a stereological approach as previously described ([Rønn et al., 2000]).
(§5) FIGURE 7 Neuritogenic effect of ARTN and artefin in (A) dominant negative RET or (B) knock down NCAM-expressing CGNs. […]

[2] = system: FGFR; cerebellar granule neurons (CGNs); experiment: Neurite outgrowth in CGNs transfected with dominant negative FGFR (dnFGFR); conditions: 24 h, ARTN 0.21 nM or artefin 1.4 μM
Procedure: as §1, with “Cells were then washed in Krebs-Ringer buffer containing Ca^2+ and Mg^2+ and re-suspended in appropriate Neurobasal^TM medium (Invitrogen, Taastrup, Denmark) with supplements depending on the experiment.” left out
as §3, with “For representative pictures, cells were additionally co-stained with Hoechst 33258.” left out

[3] = system: NCAM; cerebellar granule neurons (CGNs); experiment: Neurite outgrowth in CGNs with NCAM knock down (NCAM shRNA); conditions: 24 h, P2-d 8 μg/ml, ARTN 0.21 nM, artefin 1.4 μM; for neurite outgrowth in NCAM knock down neurons: NCAM shRNA; for neurite outgrowth in mock-transfected neurons: empty vector, versus control
Procedure: as §1, §2, §3, §4, §5

In the case of “I: RSPHDLSLASLLGAGKK-NH2 / II: RSPHDLSLASLLGAGK / III: RSPHDLSLASLLGAG / IV: RSPHDLSLASLLGAG (amide I:16-IV:C, I:17-II:C, II:16-III:C; C-terminus assumed) [artefin]”, the “neurite outgrowth in dnRET-transfected neurons” value [1] is reported as “abrogated in dnRET-transfected neurons (p < 0.01 versus artefin alone”, the “neurite outgrowth in mock-transfected neurons” value [1] is reported as “significantly increased neurite outgrowth in mock-transfected neurons (p < 0.01 versus control)” and the “neurite outgrowth effect in CGNs expressing dnFGFR” value [2] is reported as “abolished in CGNs expressing dnFGFR”. For the same molecule, the “neurite outgrowth in NCAM knock down neurons” value [3] was “abrogated in neurons where NCAM expression was knocked down (p < 0.001” and the “neurite outgrowth in mock-transfected neurons” value [3] was “promoted the neurite outgrowth in mock-transfected neurons (p < 0.01)”.

B1: recombinant human Artemin (ARTN) (ligand, UniProt Q5T4W7 108-220, looked up)
chain: AGGPGSRARAAGARGCRLRSQLVPVRALGLGHRSDELVRFRFCSGSCRRARSPHDLSLASLLGAGALRPPPGSRPVSQPCCRPTRYEAVSFMDVNSTWRTVDRLSATACGCLG
notes: Artemin (ARTN), human, UniProt D3DPX9; source: bought: R&D Systems
With B1 the “neurite outgrowth in dnRET-transfected neurons” value [1] was “abolished in neurons expressing dnRET (p < 0.05 versus ARTN alone”, the “neurite outgrowth in mock-transfected neurons” value [1] was “significantly increased by ARTN in mock-transfected neurons (p < 0.05 versus control)” and the “neurite outgrowth effect in CGNs expressing dnFGFR” value [2] was “abolished in CGNs expressing dnFGFR”. The “neurite outgrowth in NCAM knock down neurons” value [3] was “completely abolished the neurite outgrowth effect of ARTN” and the “neurite outgrowth in mock-transfected neurons” value [3] was “significantly higher level of neurite outgrowth compared to unstimulated controls (p < 0.05”.
